Reference: patent US10562893B2, “Benzimidazoles derivatives as Tec kinases family inhibitors” (GB005, Inc., priority 2015, dated 2020)

Legend:
[1] = biological target: ITK (Homo sapiens (Human), UniProt Q08881); test: ITK kinase inhibition assay; assay type: biochemical; details: micro-fluidic detection, 3 hours at 25° C.
Protocol: (§1) The in vitro kinase assays were performed at Nanosyn utilizing micro-fluidic detection technology. The test compounds were serially pre-diluted in DMSO and added, by the acoustic dispensing (Labcyte® 550), directly to 384 well assay plates into 10 uL of a buffer with enzyme comprising: 100 mM HEPES, pH7.5, 5 mM MgCl2, 0.1% bovine serum albumin, 1 mM DTT, 0.01% Triton X-100 and the enzyme. Final DMSO concentration was maintained at 1% in all samples, including the controls. The reactions were initiated by addition of ATP (to the specified concentration) and the fluorescently labeled peptide substrate to a final concentration of 1 uM, and incubated for 3 hours at 25° C. Following incubation, the reactions were quenched by addition of 40 μL of termination buffer (100 mM HEPES, pH7.5, 0.01% Triton X-100, 50 mM EDTA). Terminated plates were analyzed using Caliper LabChip® 3000 microfluidic electrophoresis instrument (Caliper Life Sciences/Perkin Elmer). The enzymatic modification of the peptide substrate (phosphorylation) results in a change of net charge enabling electrophoretic separation of product from substrate. As substrate and product are separated by electrophoresis, two peaks of fluorescence are observed. Change in the relative fluorescence intensity of the substrate and product peaks was the parameter measured, reflecting enzyme activity. In the presence of inhibitor, the ratio between product and substrate is altered: signal of the product decreases, while the signal of the substrate increases. Activity in each test sample was determined as the product to sum ratio (PSR):P/(S+P), where P is the peak height of the product and S is the peak height of the FAM-cAMP substrate. For each compound, enzyme activity was measured at 12 concentrations spaced by 3× dilution intervals. Negative control samples (0%-inhibition in the absence of inhibitor, DMSO only) and positive control samples (100%-inhibition, in the absence of enzyme or in the presence of control inhibitor) were assembled in replicates of four and were used to calculate %-inhibition values in the presence of compounds. Percent inhibition (Pinh) was determined using the following equation: Pinh=(PSR0%−PSRinh)/(PSR0%−PSR100%)*100, where PSRinh is the product sum ratio in the presence of inhibitor, PSR0% is the product sum ratio in the absence of inhibitor and PSR100% is the product sum ratio in 100%-inhibition control samples. To determine IC50 values, the inhibition curves (Pinh versus inhibitor concentration) were fitted by 4 parameter sigmoid dose-response model using XLfit software (IDBS).

[2] = test system: Human PBMCs; test: CD3/CD28 mediated PBMC proliferation assay; assay type: cell-based; details: proliferation of human PBMCs stimulated with anti-CD3 and anti-CD28, 72 hours, Cell Titer-Glo
Protocol: Inhibition of cellular ITK was assessed by measuring proliferation of PBMCs following stimulation with anti-CD3 and anti-CD28 antibodies. Individual wells of 96 well tissue culture plates were coated with 50 μL of 5 μg/mL anti-CD3 (OKT3, eBiosciences) for 2 hours at 37° C. Human PBMCs (Stemcell Technologies catalog #70025.3) were plated in 96-well plates at a final concentration of 9.2×10e5 cells/mL in complete media (RPMI, 10% heat inactivated FBS, 55 uM β-mercaptoethanol) and pre-treated with compound curves for 30 minutes at 37° C., 5% CO2. Pre-treated cells plus compounds were transferred to washed anti-CD3 coated plates. Soluble anti-CD28 (CD28.2 eBiosciences) was added to each well at a final concentration of 2 μg/mL. The cells were placed in a humidified 37° C. incubator with 5% CO2 for 72 hours and metabolic viability was measured by quantification of ATP levels with Cell Titer-Glo (Promega catalog # G9242). Controls included unstimulated cells and vehicle alone. EC50 values (50% proliferation in the presence of compound as compared to vehicle treated controls) were calculated from dose response compound curves using GraphPad Prism Software.

[3] = test system: Jurkat human acute T cell leukemia cells; test: Jurkat IL-2 release assay; assay type: cell-based; details: IL-2 release from Jurkat cells stimulated with anti-CD3 and anti-CD28, 48 hours, ELISA
Protocol: Inhibition of cellular ITK was assessed by measuring release of IL-2 following stimulation with anti-CD3 and anti-CD28 antibodies. Individual wells of 96 well tissue culture plates were coated with 50 μL of 10 μg/mL anti-CD3 (OKT3, eBiosciences) for 2 hours at 37° C. Jurkat human acute T cell leukemia cells (ATCC) were plated in 96-well plates at a final concentration of 9.2×10e5 cells/mL in complete media (RPMI, 10% FBS, 1.5 g/L sodium bicarbonate, 10 mM Hepes, 1 mM sodium pyruvate, 4.5 g/L glucose) and pre-treated with compound curves for 30 minutes at 37° C., 5% CO2. Pre-treated cells plus compounds were transferred to washed anti-CD3 coated plates. Soluble anti-CD28 (CD28.2 eBiosciences) was added to each well at a final concentration of 1 μg/mL. The cells were placed in a humidified 37° C. incubator with 5% CO2 for 48 hours and IL-2 release was measured using a commercial ELISA (BD Bioscience catalog #555190). Controls included unstimulated cells and vehicle alone. EC50 values (50% IL-2 release in the presence of compound as compared to vehicle treated controls) were calculated from dose response compound curves using GraphPad Prism Software.

[4] = biological target: RLK/TXK (Homo sapiens (Human), UniProt P42681); test: RLK/TXK kinase inhibition assay; assay type: biochemical; details: micro-fluidic detection, 3 hours at 25° C.
Chain of RLK/TXK (P42681 whole entry): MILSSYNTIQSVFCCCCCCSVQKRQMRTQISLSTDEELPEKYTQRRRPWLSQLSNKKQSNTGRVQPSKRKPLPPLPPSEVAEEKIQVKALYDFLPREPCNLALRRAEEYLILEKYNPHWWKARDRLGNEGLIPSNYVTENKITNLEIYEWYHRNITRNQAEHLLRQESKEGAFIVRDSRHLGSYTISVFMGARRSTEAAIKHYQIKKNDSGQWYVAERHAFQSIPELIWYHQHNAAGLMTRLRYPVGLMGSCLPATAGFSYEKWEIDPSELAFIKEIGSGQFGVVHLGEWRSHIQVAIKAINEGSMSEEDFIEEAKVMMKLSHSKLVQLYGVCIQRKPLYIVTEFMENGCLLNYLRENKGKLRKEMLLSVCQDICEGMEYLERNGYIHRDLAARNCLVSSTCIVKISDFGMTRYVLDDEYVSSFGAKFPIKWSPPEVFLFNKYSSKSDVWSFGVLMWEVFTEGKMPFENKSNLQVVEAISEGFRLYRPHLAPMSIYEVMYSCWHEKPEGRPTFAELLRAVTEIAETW
Protocol: as §1, with “384well” for “384 well”, “(PSR): P/(S+P),” for “(PSR):P/(S+P),”

Chain of ITK (Q08881 whole entry): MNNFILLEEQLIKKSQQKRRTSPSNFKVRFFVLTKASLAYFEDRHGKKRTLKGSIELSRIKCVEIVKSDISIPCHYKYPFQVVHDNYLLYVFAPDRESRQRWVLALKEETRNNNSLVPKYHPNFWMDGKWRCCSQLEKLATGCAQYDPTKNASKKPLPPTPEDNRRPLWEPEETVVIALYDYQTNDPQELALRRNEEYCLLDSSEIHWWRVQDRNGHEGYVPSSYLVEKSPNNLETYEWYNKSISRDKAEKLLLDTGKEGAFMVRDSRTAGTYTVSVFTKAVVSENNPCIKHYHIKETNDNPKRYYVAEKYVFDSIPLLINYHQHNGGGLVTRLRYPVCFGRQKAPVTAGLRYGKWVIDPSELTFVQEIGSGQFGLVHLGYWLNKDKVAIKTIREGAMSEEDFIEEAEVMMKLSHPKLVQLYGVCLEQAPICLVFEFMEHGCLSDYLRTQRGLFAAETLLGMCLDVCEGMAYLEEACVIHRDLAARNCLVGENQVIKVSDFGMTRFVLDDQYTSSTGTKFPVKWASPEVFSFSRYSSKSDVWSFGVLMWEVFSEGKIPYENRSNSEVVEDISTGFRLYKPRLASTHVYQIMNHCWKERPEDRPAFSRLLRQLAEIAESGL

| Compound | EC50 [1] | EC50 [3] | EC50 [4] | EC50 [2] |
| --- | --- | --- | --- | --- |
| C=CC(=O)Nc1cccc(-n2c(NC(=O)c3ccc(C(F)F)s3)nc3cc(CN[C@H]4CC[C@H](O)CC4)ccc32)c1 [Compound 31] | < 0.01 µM | < 0.01 µM | < 0.01 µM | < 0.01 µM |
| C=CC(=O)N[C@H]1CC[C@@H](n2c(NC(=O)c3ccc(C(F)F)s3)nc3cc(CN[C@@H](C)C(C)(C)C)ccc32)C1 [Compound 62] | < 0.01 µM | 0.01 to 0.1 µM | 0.01 to 0.1 µM | > 0.1 µM |
| C=CC(=O)Nc1cccc(-n2c(NC(=O)c3ccc(C(F)F)s3)nc3cc(N(C)C(=O)[C@H](C)N4CCOCC4)ccc32)c1 [Compound 77] | < 0.01 µM | < 0.01 µM | < 0.01 µM | 0.01 to 0.1 µM |
| C=CC(=O)N[C@H]1C[C@@H](n2c(NC(=O)c3ccc(C(F)F)s3)nc3cc(CN[C@@H](C)C(C)(C)C)ccc32)C1 [Compound 1] | < 0.01 µM | 0.01 to 0.1 µM | 0.01 to 0.1 µM | 0.01 to 0.1 µM |
| C=CC(=O)N[C@@H]1CC[C@H](n2c(NC(=O)c3ccc(C(F)F)s3)nc3cc(CN[C@@H](C)C(C)(C)C)ccc32)C1 [Compound 18] | < 0.01 µM | < 0.01 µM | < 0.01 µM | 0.01 to 0.1 µM |
| C=CC(=O)Nc1cccc(-n2c(NC(=O)c3ccc(C(F)F)s3)nc3cc(CNC4CCCCC4)ccc32)c1 [Compound 14] | – | < 0.01 µM | – | 0.01 to 0.1 µM |
| C=CC(=O)N[C@H]1CC[C@@H](n2c(NC(=O)c3ccns3)nc3cc(CN[C@@H](C)C(C)(C)C)ccc32)CC1 [Compound 67] | – | 0.01 to 0.1 µM | – | > 0.1 µM |
| C=CC(=O)N[C@H]1CCC[C@@H](n2c(NC(=O)c3ccc(C(F)F)s3)nc3cc(CN[C@@H](C)C(C)(C)C)ccc32)C1 [Compound 68] | < 0.01 µM | – | < 0.01 µM | < 0.01 µM |
| C=CC(=O)N(C)[C@H]1C[C@@H](n2c(NC(=O)c3ccc(C(F)F)s3)nc3cc(CN[C@@H](C)C(C)(C)C)ccc32)C1 [Compound 6] | – | < 0.01 µM | – | 0.01 to 0.1 µM |
| C=CC(=O)Nc1cccc(-n2c(NC(=O)c3ccc(C(F)F)s3)nc3cc(CN[C@H]4CC[C@@H](O)CC4)ccc32)c1 [Compound 35] | – | 0.01 to 0.1 µM | – | < 0.01 µM |
| CC#CC(=O)Nc1cccc(-n2c(NC(=O)c3ccc(C(F)F)s3)nc3cc(CN[C@@H](C)C(C)(C)C)ccc32)c1 [Compound 72] | – | 0.01 to 0.1 µM | – | > 0.1 µM |
| C=CC(=O)N[C@H]1CC[C@@H](n2c(NC(=O)c3ccc(C#N)cc3)nc3cc(CN[C@@H](C)C(C)(C)C)ccc32)CC1 [Compound 54] | – | > 0.1 µM | – | > 0.1 µM |
| C=CC(=O)Nc1cccc(-n2c(NC(=O)c3ccno3)nc3cc(CN4CCOCC4)ccc32)c1 [Compound 76] | – | < 0.01 µM | – | 0.01 to 0.1 µM |
| C=CC(=O)Nc1cccc(-n2c(NC(=O)c3ccc(C(F)F)s3)nc3cc(CNCCCO)ccc32)c1 [Compound 39] | – | 0.01 to 0.1 µM | – | < 0.01 µM |
| C=CC(=O)Nc1cccc(-n2c(NC(=O)c3ccc(C(F)F)s3)nc3cc(CN[C@@H](C)CC)ccc32)c1 [Compound 21] | – | 0.01 to 0.1 µM | – | < 0.01 µM |

Second part, led by results:

| EC50 [1] | EC50 [3] | EC50 [4] | Compound | EC50 [2] |
| --- | --- | --- | --- | --- |
| < 0.01 µM | 0.01 to 0.1 µM | < 0.01 µM | C=CC(=O)Nc1cccc(-n2c(NC(=O)c3ccncc3)nc3cc(CN[C@@H](C)C(C)(C)C)ccc32)c1 [Compound 16] | 0.01 to 0.1 µM |
| > 0.1 µM | > 0.1 µM | 0.01 to 0.1 µM | C=CC(=O)Nc1cccc(-n2c(NC(=O)c3nccs3)nc3cc(CN[C@@H](C)C(C)(C)C)ccc32)c1 [Compound 12] | > 0.1 µM |
| 0.01 to 0.1 µM | 0.01 to 0.1 µM | < 0.01 µM | C=CC(=O)Nc1cccc(-n2c(NC(=O)c3cncs3)nc3cc(CN[C@@H](C)C(C)(C)C)ccc32)c1 [Compound 17] | 0.01 to 0.1 µM |
| 0.01 to 0.1 µM | < 0.01 µM | 0.01 to 0.1 µM | C=CC(=O)Nc1cccc(-n2c(NC(=O)c3cnco3)nc3cc(CN[C@@H](C)C(C)(C)C)ccc32)c1 [Compound 42] | 0.01 to 0.1 µM |
| < 0.01 µM | < 0.01 µM | 0.01 to 0.1 µM | C=CC(=O)Nc1cccc(-n2c(NC(=O)c3cccnc3)nc3cc(CN[C@@H](C)C(C)(C)C)ccc32)c1 [Compound 19] | 0.01 to 0.1 µM |
| < 0.01 µM | < 0.01 µM | < 0.01 µM | C=CC(=O)Nc1cccc(-n2c(NC(=O)c3ccns3)nc3cc(CN[C@@H](C)C(C)(C)C)ccc32)c1 [Compound 43] | < 0.01 µM |
| > 0.1 µM | > 0.1 µM | > 0.1 µM | C=CC(=O)Nc1cccc(-n2c(NC(=O)c3ccccn3)nc3cc(CN[C@@H](C)C(C)(C)C)ccc32)c1 [Compound 27] | > 0.1 µM |
| – | 0.01 to 0.1 µM | – | C=CC(=O)Nc1cccc(-n2c(NC(=O)c3cccc(F)c3)nc3cc(CN[C@@H](C)C(C)(C)C)ccc32)c1 [Compound 7] | 0.01 to 0.1 µM |
| – | 0.01 to 0.1 µM | – | C=CC(=O)Nc1ccc(-n2c(NC(=O)c3ccc(C(F)F)s3)nc3cc(CN[C@@H](C)C(C)(C)C)ccc32)cc1 [Compound 4] | > 0.1 µM |
